One block for each molecule: values may come before it.
Key:
Trypanosoma cruzi [1] = experiment: Trypanocidal activity against Trypanosoma cruzi NINOA epimastigotes incubated for 24 hrs by Neubauer chamber method; type: functional, organism-based
Trypanosoma cruzi [2] = experiment: Trypanocidal activity against Trypanosoma cruzi Tulahuen-2 epimastigotes incubated for 24 hrs by Neubauer chamber method; type: functional, organism-based; settings: Tulahuen-2, 24 h
Trypanosoma cruzi [3] = experiment: Antitrypanosomal activity against Trypanosoma cruzi Tulahuen-2 infected in […] J774 cells assessed as inhibition of parasite proliferation; type: functional, organism-based; settings: Tulahuen-2, J774
Trypanosoma cruzi [4] = experiment: Antitrypanosomal activity against bloodstream trypomastigote form of Trypanosoma cruzi Y; type: functional, organism-based
Trypanosoma cruzi [5] = experiment: Antitrypanosomal activity against bloodstream […] form of Trypanosoma cruzi Y; type: functional, organism-based
[6] = Toxicity in CD-1 mouse infected with Trypanosoma cruzi Y trypomastigotes assessed as mortality at 50 mg/kg/day, po pre-infected with parasite followed by compound addition and measured after 15 days relative to control; type: organism-based; settings: in vivo, 360 h, time 15 day
Trypanosoma cruzi [7] = experiment: Antitrypanosomal activity against Trypanosoma cruzi Y strain trypomastigotes Vero cells assessed as inhibition of parasite growth incubated for 24 hrs by Neubauer chamber based analysis; type: functional, organism-based
[8] = Toxicity in CD-1 mouse infected with Trypanosoma cruzi Y MHOM/MX/1994/INC5 from blood stream trypomastigotes assessed as reduction in parasite growth by measuring lethal concentration; settings: in vivo, 24 h
[9] = Toxicity in CD-1 mouse infected with Trypanosoma cruzi Y MHOM/MX/1994/NINOA from blood stream trypomastigotes assessed as reduction in parasite growth by measuring lethal concentration; settings: in vivo, 24 h
[10] = Cytotoxicity against rhesus monkey LLC-MK2 cells; type: toxicity, cell-based, Macaca mulatta
Trypanosoma cruzi [11] = experiment: Antitrypanosomal activity against bloodstream trypomastigote form of Trypanosoma cruzi Y assessed as parasite growth inhibition incubated for 24 hrs by light microscopic analysis; type: functional, organism-based
Trypanosoma cruzi [12] = experiment: Anti-trypanosomal activity against Trypanosoma cruzi Y trypomastigotes infected in mouse RAW264.7 cells assessed as inhibition of parasite release measured for 48 hrs; type: functional, organism-based; settings: RAW264.7, 48 h
Trypanosoma cruzi [13] = experiment: Antitrypanosomal activity against bloodstream trypomastigote form of Trypanosoma cruzi Y assessed as reduction in parasite growth; type: functional, organism-based
Trypanosoma cruzi [14] = experiment: Antitrypanosomal activity against Trypanosoma cruzi Tulahuen amastigotes expressing Escherichia coli beta-galactosidase infected in LLC-MK2 cells incubated for 48 hrs; type: functional, organism-based; settings: LLC-MK2, 48 h

Structure (SMILES): NC(=S)N/N=C/c1c(C(F)(F)F)nn(-c2ccccc2)c1-c1ccc(Br)cc1
IC50 (Trypanosoma cruzi [4]): 30 µM

Structure (SMILES): O=C(N/N=C/c1ccc(F)cc1)c1ccccc1
Activity [6]: 46.2%

Structure (SMILES): C/C(=N\N=C1\NC(=O)C(c2ccccc2)S1)c1ccc(Cl)cc1Cl (stereo not given)
IC50 (Trypanosoma cruzi [7]): 1.12 µM

Structure (SMILES): Fc1cccc(F)c1CSc1nc2ccccc2s1
LC50 [8]: 260 µM
LC50 [9]: 110 µM

Structure (SMILES): COc1ccc(-c2c(/C=N/N=C(/N)SC)c(C(F)(F)F)nn2-c2ccccc2)cc1
IC50 (Trypanosoma cruzi [4]): 19.1 µM

Structure (SMILES): O=C(Cn1cccc1[N+](=O)[O-])Nc1cccc(C(F)(F)F)c1
CC50 at 48 h [10]: 2.1 µM

Structure (SMILES): CCOC(=O)c1csc(N/N=C(\C)c2ccccc2)n1
IC50 (Trypanosoma cruzi [11]): 2.83 µM

Structure (SMILES): CCOC(=O)c1csc(N/N=C/c2ccco2)n1
IC50 (Trypanosoma cruzi [11]): 2.75 µM

Structure (SMILES): CCOC(=O)c1csc(N/N=C/c2ccccc2Br)n1
IC50 (Trypanosoma cruzi [11]): 0.83 µM

Structure (SMILES): c1ccc(CSc2nc3ccccc3s2)cc1
LC50 [8]: 336 µM
LC50 [9]: 123 µM

Structure (SMILES): COC(=O)/C=C/c1ccc2c(c1)C(C(=O)OC)C(c1ccc(O)cc1)O2 (stereo not given)
IC50 (Trypanosoma cruzi [5]): 3.26 µM
IC50 (Trypanosoma cruzi [14]): 11.9 µM
CC50 at 48 h [10]: 49.9 µM

Structure (SMILES): CS/C(N)=N\N=C\c1c(C(F)(F)F)nn(-c2ccccc2)c1-c1ccc(Br)cc1
IC50 (Trypanosoma cruzi [4]): 25.7 µM

Structure (SMILES): Fc1c(F)c(F)c(CSc2nc3ccccc3s2)c(F)c1F
LC50 [8]: 185 µM
LC50 [9]: 147 µM

Structure (SMILES): NC(=S)N/N=C(\C=C\c1ccc(Cl)cc1)c1ccccc1
IC50 (Trypanosoma cruzi [14]): 12.2 µM

Structure (SMILES): COc1cccc(/C=C/c2ccc3cccc(O)c3n2)c1CC(=O)O
EC50 (Trypanosoma cruzi [13]): 36 µM

Structure (SMILES): CCOC(=O)c1csc(N/N=C/c2cccc(Cl)c2)n1
IC50 (Trypanosoma cruzi [11]): 4.44 µM

Structure (SMILES): O=C(Cn1ccnc1[N+](=O)[O-])NCc1ccccc1 [BENZNIDAZOLE]
Activity [6]: 68.3%
IC50 (Trypanosoma cruzi [7]): 6.26 µM
IC50 (Trypanosoma cruzi [14]): 5.64 µM
CC50 at 48 h [10]: 156 µM
IC50 (Trypanosoma cruzi [11]): 34.5 µM
IC50 (Trypanosoma cruzi [4]): 91 µM

Structure (SMILES): COC(=O)/C=C/c1ccc2c(c1)C(C(=O)OC)C(c1ccc(O)c(OC)c1)O2 (stereo not given)
IC50 (Trypanosoma cruzi [14]): 7.96 µM
CC50 at 48 h [10]: 0.86 µM

Structure (SMILES): CCC1S/C(=N\N=C(/C)c2ccc(Cl)cc2Cl)NC1=O (stereo not given)
IC50 (Trypanosoma cruzi [7]): 2.57 µM

Continued, in another order:

IC50 (Trypanosoma cruzi [3]): 43 µM
Structure (SMILES): COc1cc(OC)cc(OC2=C(Oc3cc(OC)cc(OC)c3OC)C(=O)c3ccccc3C2=O)c1
IC50 (Trypanosoma cruzi [1]): 1.3 µM
IC50 (Trypanosoma cruzi [2]): 0.49 µM

IC50 (Trypanosoma cruzi [5]): 22.8 µM
IC50 (Trypanosoma cruzi [4]): 420 µM
Structure (SMILES): Fc1cccc(Nc2cnc3ccccc3c2)c1
IC50 (Trypanosoma cruzi [2]): 13.5 µM

IC50 (Trypanosoma cruzi [12]): 3.6 µM
Structure (SMILES): O=C1c2ccccc2C(=O)N1C/C(=N/NC(=S)Nc1ccccc1)c1ccc(Cl)cc1Cl

IC50 (Trypanosoma cruzi [5]): 10.9 µM
IC50 (Trypanosoma cruzi [4]): 616 µM
Structure (SMILES): Fc1ccc(Nc2cnc3ccccc3c2)cc1
IC50 (Trypanosoma cruzi [2]): 11.3 µM

IC50 (Trypanosoma cruzi [3]): 51 µM
Structure (SMILES): Cc1ccc(OC2=C(Br)C(=O)c3ccccc3C2=O)c(C)c1
IC50 (Trypanosoma cruzi [1]): 1.69 µM
IC50 (Trypanosoma cruzi [2]): 0.45 µM

IC50 (Trypanosoma cruzi [7]): 0.85 µM
Structure (SMILES): C/C(=N\N=C1/NC(=O)C(c2ccccc2)S1)c1cc(Cl)ccc1Cl (stereo not given)

EC50 (Trypanosoma cruzi [13]): 40.8 µM
Structure (SMILES): O=C(O)Cc1ccccc1/C=C/c1ccc2cccc(O)c2n1

IC50 (Trypanosoma cruzi [4]): 0.129 µM
Structure (SMILES): O=C1c2ccccc2C(=O)c2c1oc1c2CCCC1

IC50 (Trypanosoma cruzi [4]): 0.064 µM
Structure (SMILES): O=C1C(=O)c2c(oc3c2CCCC3)-c2ccccc21

IC50 (Trypanosoma cruzi [5]): 25.8 µM
IC50 (Trypanosoma cruzi [4]): > 500 µM
Structure (SMILES): Clc1ccc(Nc2cnc3ccccc3c2)cc1
IC50 (Trypanosoma cruzi [2]): 12 µM

IC50 (Trypanosoma cruzi [4]): 0.031 µM
Structure (SMILES): CC1CCc2oc3c(c2C1)C(=O)c1ccccc1C3=O (stereo not given)

IC50 (Trypanosoma cruzi [4]): 0.074 µM
Structure (SMILES): CC1CCc2oc3c(c2C1)C(=O)C(=O)c1ccccc1-3 (stereo not given)

IC50 (Trypanosoma cruzi [12]): 4.48 µM
Structure (SMILES): COc1ccc(/C(CN2C(=O)c3ccccc3C2=O)=N\Nc2nc(-c3ccc(OC)cc3)cs2)cc1

IC50 (Trypanosoma cruzi [4]): 0.033 µM
Structure (SMILES): CC(C)(C)C1CCc2oc3c(c2C1)C(=O)c1ccccc1C3=O (stereo not given)

IC50 (Trypanosoma cruzi [12]): 3.75 µM
Structure (SMILES): O=C1c2ccccc2C(=O)N1C/C(=N/NC(=S)Nc1ccccc1)c1ccc(F)cc1
